Experimental data from patent publication US7638306B2, “Process of increasing cellular production of biologically active compounds” (Fermalogic, Inc., priority 2003, dated 2009).
Structures can show the parent of a compound that is named as a salt.

Tests used:
[1] = test system: wild type A. erythreum; assay: growth inhibition of wild type A. erythreum by kanamycin; format: cell-based, Aeromicrobium erythreum
[2] = test system: A. erythreum mutants containing the aph1 gene; conditions: aphI (aph1) gene from Tn903 expressed in A. erythreum
Excerpt: E. coli library of A. erythreum genomic DNA. The plasmid library was constructed in the A. erythreum integration vector pFL2082, a pUC19-derived vector containing the aphI gene from Tn903. […] Several different vector preparations were dephosphorylated with different concentrations of CIAP or SAP in order to obtain the highest ratio of white to blue colonies after ligation. […] To generate a library that represented in excess of 5-fold coverage of the chromosome (estimated A. erythreum genome size somewhere between 4-8 Mb, representing about 4,000-8,000 coding sequences), 100,000 white colonies were harvested into 25 pools. This large number of colonies was chosen based on the assumption that some genes will be disproportionately represented over others after selection in E. coli. The colonies were split among 25 pools (ca. 4,000 colonies/pool) to increase randomness. To determine the insert size of random plasmid isolates a total of 65 white colonies were analyzed by restriction analysis of their plasmid DNA. […] This library was designated A. erythreum genomic library or library 1.
To generate a gene replacement library we developed a rapid, simple visual screen that took advantage of the Kn^r phenotype of single crossover mutants and the Kn^s phenotype of gene replacement mutants. […]

## NC[C@H]1O[C@H](O[C@H]2[C@H](O)[C@@H](O[C@H]3O[C@H](CO)[C@@H](O)[C@H](N)[C@H]3O)[C@H](N)C[C@@H]2N)[C@H](O)[C@@H](O)[C@@H]1O [Kanamycin sulfate]
[1]
  kanamycin concentration to which A. erythreum is sensitive (growth inhibited): ≥ 5 µg/mL

## NC[C@H]1O[C@H](O[C@H]2[C@H](O)[C@@H](O[C@H]3O[C@H](CO)[C@@H](O)[C@H](N)[C@H]3O)[C@H](N)C[C@@H]2N)[C@H](O)[C@@H](O)[C@@H]1O [kanamycin]
[1]
  kanamycin concentration to which A. erythreum is sensitive (growth inhibited): ≥ 2 µg/mL
[2]
  kanamycin concentration up to which resistance is conferred with good growth: 10 to 15 µg/mL
